Results from patent US12162867B2, “Inhibitors of RNA helicase DHX9 and uses thereof” (ACCENT THERAPEUTICS, INC., priority 2022, dated 2024).
Where two headings read alike, the source gives them in different places.

How the values were obtained:
Type in all cases: cell-based
[1] = test system: circBRIP1 in HCT116 cells; experiment: DHX9 circBRIP1 cellular target engagement SYBR Green assay (qPCR); details: Homo sapiens, HCT-116, circBRIP1, HCT116 cells, read-out: DHX9 Cellular Target Engagement EC50
NCI-H747 cells = experiment: DHX9 cellular proliferation assay (CellTiter-Glo), NCI-H747 (CRC-MSS); details: Homo sapiens, performed at Pharmaron, read-out: H747 (CRC-MSS) Antiproliferative IC50
LS411N cells = experiment: DHX9 cellular proliferation assay (CellTiter-Glo), LS411N (CRC-MSI); details: Homo sapiens, LS-411N, LS411N, performed at Pharmaron, read-out: LS411N (CRC-MSI-H) Antiproliferative IC50

Structure (SMILES)	EC50 ([1]; SyBr assay (marked ^+))	IC50 (NCI-H747 cells; NCI-H747, NCI-H747, CRC-MSS)	IC50 (LS411N cells; CRC-MSI-H)	EC50 ([1]; ^+ SyBr assay was used)	IC50 (NCI-H747 cells; NCI-H747, NCI-H747)	IC50 (LS411N cells)
Cc1cc(C(=O)Nc2cc(Cl)cc(NS(C)(=O)=O)c2)cn1-c1ncccn1 [Example 59]	104 nM	> 10000 nM	357 nM			
CCS(=O)(=O)Nc1cc(Cl)cc(NC(=O)c2cc(-c3ncccc3C)cs2)c1 [Example 224]	55.8 nM	> 10000 nM	122 nM			
COc1cc2cc(C(=O)Nc3cc(Cl)cc(NS(C)(=O)=O)c3)sc2cc1OC [Example 291]	803 nM	> 10000 nM	352 nM			
CCOc1cnc(-c2csc(C(=O)Nc3cc(Cl)cc(NS(C)(=O)=O)c3)c2)nc1 [Example 342]	47.8 nM	> 10000 nM	133 nM			
Cc1sc(C(=O)Nc2cc(Cl)cc(NS(C)(=O)=O)c2)cc1-c1ncccn1 [Example 22]	35.8 nM	> 10000 nM	115 nM			
Cn1cc(C(=O)Nc2cc(Cl)cc(NS(C)(=O)=O)c2)cc1-c1ncc(C(F)(F)F)cn1 [Example 571]				62.1 nM	3560 nM	159 nM
Cc1cccnc1-c1nc(C(=O)Nc2cc(Br)cc(NS(C)(=O)=O)c2)cn1C [Example 96, N-(3-bromo-5-(methylsulfonamido)phenyl)-1-methyl-2-(3-methylpyridin-2-yl)-1H-imidazole-4-carboxamide]	9630 nM	> 10000 nM	> 10000 nM			
CC(O)c1cc(C(=O)Nc2cc(Cl)cc(NS(C)(=O)=O)c2)cn1-c1ccccn1 (stereo not drawn) [Example 287]	232 nM	> 10000 nM	165 nM			
Cc1sc(C(=O)Nc2cc(Br)cc(NS(C)(=O)=O)c2)cc1-c1ccccn1 [Example 23]	54.2 nM	> 10000 nM	53.1 nM			
CCOc1ccc(-n2cc(C(=O)Nc3cc(Cl)cc(NS(C)(=O)=O)c3)cc2C)nc1 [Example 437]				46.8 nM	> 10000 nM	123 nM
COc1cnn(-c2cc(C(=O)Nc3cc(Cl)cc(NS(C)(=O)=O)c3)sc2C)c1 [Example 436]				89.5 nM	> 10000 nM	272 nM
Cn1cc(C(=O)Nc2cc(Cl)cc(NS(C)(=O)=O)c2)cc1-c1ncc(F)cn1 [Example 171, N-(3-chloro-5-(methylsulfonamido)phenyl)-5-(5-fluoropyrimidin-2-yl)-1-methyl-1H-pyrrole-3-carboxamide]	95.7 nM	> 10000 nM	372 nM			
Cc1cccnc1-c1cc(C(=O)Nc2cc(Cl)cc(NS(C)(=O)=O)c2)cn1CC(F)F [Example 143, N-(3-chloro-5-(methylsulfonamido)phenyl)-1-(2,2-difluoroethyl)-5-(3-methylpyridin-2-yl)-1H-pyrrole-3-carboxamide]	516 nM	8540 nM	1090 nM			
COCCOc1ccc(-n2cc(C(=O)Nc3cc(Cl)cc(NS(C)(=O)=O)c3)cc2C)nc1 [Example 442]				46 nM	> 10000 nM	123 nM
CS(=O)(=O)Nc1cc(Cl)cc(NC(=O)c2cc(-c3ncccc3OCc3cccnc3)cs2)c1 [Example 217]	13.6 nM	> 10000 nM	53.3 nM			
CS(=O)(=O)Nc1cc(Cl)cc(NC(=O)c2cc(-c3ccccn3)c(C3CC3)s2)c1 [Example 177, N-(3-chloro-5-(methylsulfonamido)phenyl)-5-cyclopropyl-4-(pyridin-2-yl)thiophene-2-carboxamide]	84.8 nM	> 10000 nM	251 nM			
CCS(=O)(=O)Nc1cc(Cl)cc(NC(=O)c2cc(-c3ccccn3)c(C)s2)c1 [Example 28]	25.8 nM	> 10000 nM	78.8 nM			
CS(=O)(=O)Nc1cc(Br)cc(NC(=O)c2cc(-c3ccccc3O)cs2)c1 [Example 21]	260 nM	> 10000 nM	791 nM			
CS(=O)(=O)Nc1cc(Cl)cc(NC(=O)c2cc(-c3ccccc3)c(CO)s2)c1 [Example 120, N-(3-chloro-5-(methylsulfonamido)phenyl)-5-(hydroxymethyl)-4-phenylthiophene-2-carboxamide]	144 nM	6980 nM	1070 nM			
COCc1ccc(-c2cc(C(=O)Nc3cc(Cl)cc(NS(C)(=O)=O)c3)cn2C)nc1 [Example 574]				39.5 nM	> 10000 nM	92.2 nM
CC1CN(c2ccc(-n3cc(C(=O)Nc4cc(Cl)cc(NS(C)(=O)=O)c4)cn3)nc2)CCO1 (stereo not drawn) [Example 92]	281 nM	> 10000 nM	1100 nM			
CS(=O)(=O)Nc1cc(Cl)cc(NC(=O)c2cc(-c3ncccc3OCc3cncc(F)c3)cs2)c1 [Example 620, N-(3-chloro-5-methanesulfonamidophenyl)-4-{3-[(5-fluoropyridin-3-yl)methoxy]pyridin-2-yl}thiophene-2-carboxamide]				6.2 nM	> 10000 nM	26.4 nM
CS(=O)(=O)Nc1cc(Cl)cc(NC(=O)c2cc(-c3ccccn3)c(CO)s2)c1 [Example 163, N-(3-chloro-5-(methylsulfonamido)phenyl)-5-(hydroxymethyl)-4-(pyridin-2-yl)thiophene-2-carboxamide]	70 nM	> 10000 nM	609 nM			

Structure (SMILES)	EC50 ([1]; SyBr assay (marked ^+))	IC50 (NCI-H747 cells; NCI-H747, NCI-H747, CRC-MSS)	IC50 (LS411N cells; CRC-MSI-H)	EC50 ([1]; ^+ SyBr assay was used)	IC50 (NCI-H747 cells; NCI-H747, NCI-H747)	IC50 (LS411N cells)
Cn1cc(C(=O)Nc2cc(Cl)cc(NS(C)(=O)=O)c2)cc1-c1ccc(N2CC(F)C2)cn1 [Example 539]				16.2 nM	7010 nM	98.3 nM
Cc1ccc(OCc2cccc(F)c2)c(-n2cc(C(=O)Nc3cc(Cl)cc(NS(C)(=O)=O)c3)cn2)n1 [Example 204]	53.9 nM	> 10000 nM	54.8 nM			
CC(C)c1sc(C(=O)Nc2cc(Cl)cc(NS(C)(=O)=O)c2)cc1-c1ccccn1 [Example 233]	460 nM	> 10000 nM	356 nM			
CS(=O)(=O)Nc1cc(Cl)cc(NC(=O)c2cc(CO)n(-c3ncccc3OCc3cncc(F)c3)c2)c1 [Example 723]				73.5 nM	> 10000 nM	733 nM
Cc1cc(C(=O)Nc2cc(Cl)cc(NS(C)(=O)=O)c2)cn1-c1ccc(N2CCOCC2)cn1 [Example 93]	30 nM	> 10000 nM	253 nM			
Cc1cc(C(=O)Nc2cc(Cl)cc(NS(C)(=O)=O)c2)cn1-c1ccccc1 [Example 129, N-(3-chloro-5-(methylsulfonamido)phenyl)-5-methyl-1-phenyl-1H-pyrrole-3-carboxamide]	333 nM	> 10000 nM	1090 nM			
Cc1cc(C(=O)Nc2cc(Cl)cc(NS(C)(=O)=O)c2)cn1-c1ncccc1O [Example 281]	483 nM	7340 nM	367 nM			
Cc1cc(C(=O)Nc2cc(Cl)cc(NS(C)(=O)=O)c2)cn1-c1ncccc1OCc1nccs1 [Example 280]	74.2 nM	> 10000 nM	116 nM			
CS(=O)(=O)Nc1cc(Cl)cc(NC(=O)c2cnn(-c3ncc(F)cc3CCc3cccc(F)c3)c2)c1 [Example 251]	> 10000 nM	> 10000 nM	432 nM			
Cc1cc(C(=O)Nc2cc(Cl)cc(NS(C)(=O)=O)c2)cn1-c1ccc(F)cn1 [Example 390]	167 nM	> 10000 nM	63.1 nM			
CS(=O)(=O)Nc1cc(Cl)cc(NC(=O)c2cc(-c3ncc(F)cc3OCc3cncc(F)c3)cs2)c1 [Example 225]	19.9 nM	> 10000 nM	43.9 nM			
Cc1cc(C(=O)Nc2cc(Cl)cc(NS(C)(=O)=O)c2)cn1-c1ccc(Cl)cn1 [Example 389]	110 nM	8040 nM	113 nM			
CS(=O)(=O)Nc1cc(Cl)cc(NC(=O)c2cnn(-c3ncccc3OCc3cccc(F)c3)c2)c1 [Example 65]	63.1 nM	> 10000 nM	109 nM			
CS(=O)(=O)Nc1cc(F)cc(NC(=O)c2cc(-c3ncccc3OCc3ccccc3)cs2)c1 [Example 214]	106 nM	7150 nM	203 nM			
CS(=O)(=O)Nc1cc(Cl)cc(NC(=O)c2cnn(-c3ncccc3OCc3cncc(F)c3)c2)c1 [Example 186]	161 nM	> 10000 nM	2440 nM			
Cc1cccnc1-c1cc(C(=O)Nc2cc(Cl)cc(NS(C)(=O)=O)c2)cn1C [Example 81]	290 nM	> 10000 nM	1070 nM			
Cc1cc(C(=O)Nc2cc(Cl)cc(NS(C)(=O)=O)c2)cn1-c1ccc(N2CCN(C(=O)N(C)C)CC2)cn1 [Example 284]	103 nM	> 10000 nM	161 nM			
CS(=O)(=O)Nc1cc(Cl)cc(NC(=O)c2cnn(-c3ncc(F)cc3OCc3cccc(F)c3)c2)c1 [Example 202]	103 nM	8560 nM	111 nM			
Cn1cc(C(=O)Nc2cc(Cl)cc(NS(C)(=O)=O)c2)cc1-c1ccc(N2CC3(COC3)C2)cn1 [Example 277]	47.6 nM	4700 nM	66.7 nM			
Cn1cc(C(=O)Nc2cc(Cl)cc(NS(C)(=O)=O)c2)cc1-c1ccc(N2CC(F)(F)C2)cn1 [Example 595, N-(3-chloro-5-methanesulfonamidophenyl)-5-[5-(3,3-difluoroazetidin-1-yl)pyridin-2-yl]-1-methyl-1H-pyrrole-3-carboxamide]				35.2 nM	7400 nM	167 nM
CS(=O)(=O)Nc1cc(Br)cc(NC(=O)c2cc(-c3cnccn3)cs2)c1 [Example 18]	98.4 nM	> 10000 nM	546 nM			
CS(=O)(=O)Nc1cc(Br)cc(NC(=O)c2cnn(-c3ccccc3OCc3ccccc3)c2)c1 [Example 51]	188 nM	6470 nM	259 nM			
